{"source": "patent US20070155771A1", "about": "“Methods and means for treating protein conformational disorders” (priority 2003, published 2007)", "key": {"[1]": {"system": "Drosophila HD model expressing the first 171 residues of huntingtin with 120 glutamines (120Q) in photoreceptors", "assay": "Drosophila HD model, pseudopupil analysis of photoreceptor neurodegeneration", "format": "in vivo", "description": "A Drosophila line y; w; gmr-Q120 was crossed to w; iso2; iso3 to obtain progeny heterozygous for the transgene gmr-Q120. Flies were allowed to mate on normal food for 2-3 days and then transferred to food containing 1 μM rapamycin (Sigma) or DMSO. After eclosion, flies were placed on food containing 1 μM rapamycin or DMSO. Flies were transferred to newly prepared food every day.\nPseudopupil analysis: Adult male flies were decapitated and the head was mounted onto a microscope slide using nail polish. Analysis was performed with an optical microscope using a 60× objective with the observer blinded to the identity of the slides. Approximately 75 ommatidia were evaluated for each group (approx. 15 ommatidia in 5 individuals). Each experiment was done twice. The frequency of ommatidia with different numbers of visible rhabdomeres was based on all visible photoreceptor neurons, irrespective of their shape or brightness. Flies were raised at 25° C. with 12/12-h light/dark-cycle, 70% humidity.\nA Drosophila HD model that expresses the first 171 residues of huntingtin with 120 glutamines (120Q) in photoreceptors (Jackson, G. R., et al. Neuron 21, 633-642 (1998)) was used to test whether long-term mTOR inhibition with rapamycin would have beneficial effects in vivo. The mutant flies show photoreceptor neurodegeneration, a phenotype that is easily quantifiable using the pseudopupil technique (Franceschini, N. & Kirschfeld K. Kybernetik 9, 159-182 (1971)). No degeneration is seen in flies expressing analogous constructs with 20Q (wild-type transgenics). The compound eye of Drosophila comprises many ommatidia. An ommatidium normally contains eight photoreceptor neurons with light gathering parts called rhabdomeres, seven of which can be easily visualized using the pseudopupil technique. The number of visible rhabdomeres in each ommatidium decreases as a function of time when there is photoreceptor neurodegeneration, like in the 120Q fly lines."}, "[2]": {"system": "mTOR-dependent TOP-translation", "assay": "TOP-luciferase reporter assay in PC12 cells stably expressing Q23 or Q74", "format": "cell-based, rat", "description": "PC12 cells stably expressing Q23 or Q74 were transfected with a luciferase construct having a 5′ untranslated region from the eEF2 gene containing a terminal oligopyrimidine tract (TOP-luciferase) or without the TOP sequence (Control-luciferase) along with β-galactosidase (to control transfection efficiency). Transfected cells were maintained in serum free medium with doxycycline for 36 hours following which the cells were stimulated with 15% serum with or without rapamycin for 3 h. Cells were then lysed and luciferase assays were performed according to standard protocol. COS-7 cells were co-transfected with Q23 or Q74 with control- or TOP-luciferase along with β-gal and experiments were performed as above. […] Experiments were performed in sextuplicate and repeated several times.\nPhosphorylation of the ribosomal protein S6 by S6K1 positively regulates the translation initiation of mRNAs containing 5′-terminal oligopyrimidine tracts (5′-TOP), like mRNAs coding for ribosomal proteins and translation elongation factors. A previously validated luciferase reporter assay was used to measure mTOR-dependent TOP-translation (Kim, J. E. & Chen, J. Proc Natl Acad Sci USA 97, 14340-14345 (2000), Schwab, M. S. et al. Mol Cell Biol 19, 2485-2494 (1999)). Rapamycin is a specific inhibitor of mTOR. Comparison of cells for TOP-dependent translation with this assay in the presence or absence of rapamycin allows assessment of the amount of functional cellular mTOR that can be inhibited by rapamycin. In FIG. 10C, each bar represents the difference between the luciferase activities (corrected for transfection efficiency-see methods) in the presence vs. the absence of rapamycin, for a luciferase reporter with a TOP sequence (+TOP) (FIG. 10A) and otherwise identical control construct without the TOP sequence (−TOP) (FIG. 10B)."}}, "data": [{"substance": "rapamycin", "values": [{"measurement": "120Q-induced photoreceptor degeneration", "setting": "[1]; 1 μM rapamycin in food from larval stage into adulthood, vs DMSO", "result": "dramatically rescued"}, {"measurement": "number of visible rhabdomeres per ommatidium", "setting": "[1]; 1 μM rapamycin in food, two and three days after eclosion, p<0.0001", "result": "significantly increased"}, {"measurement": "frequency of ommatidia with seven rhabdomeres", "setting": "[1]; HD 120Q flies, 2 and 3 days post-eclosion", "result": "dramatically increases"}, {"measurement": "inhibition of TOP-dependent (+TOP) expression of luciferase", "setting": "[2]; Q23-expressing PC12 cells, after serum stimulation, 3 h", "result": "about 18%"}, {"measurement": "luciferase activity, control-luciferase construct without the TOP sequence (−TOP)", "setting": "[2]; Q23 cells", "result": "no inhibitory effect"}, {"measurement": "inhibition of TOP-dependent (+TOP) expression of luciferase", "setting": "[2]; Q74-expressing PC12 cells", "result": "no such inhibitory effect"}]}]}
